Reference: patent US20050209195A1, “Indolinone derivatives” (Cell Therapeutics Europe S.r.I, priority 2004, published 2005)
Like-named read-outs stand apart in the source and are kept apart here.

Assays:
[1] = molecular target: T1, Human cKit Tyrosine Kinase Receptor (human cKit RTK-catalytic domain) (Homo sapiens, UniProt P10721); test: DELFIA cKit Tyrosine Kinase Assay (cell-free); type: biochemical
T1 construct: human cKit RTK-catalytic domain; purchased Panvera-Invitrogen P3080
Description: The compounds of the invention were tested with a dedicated cell-free kinase assay for the evaluation of the inhibiting activity on tyrosine kinases.
In more detail, the assay was a DELFIA™ (Dissociation Enhanced Time-Resolved Fluorometric Assay) Tyrosine Kinase Assay™ (PerkinElmer), a highly sensitive, reproducible ELISA assay that allows to evaluate the activity of a tyrosine kinase.
Human cKit Tyrosine Kinase Receptor (human cKit RTK-catalytic domain), commercially available from Panvera-Invitrogen (Cat. N^o. P3080), was used as the tyrosine kinase.
After 1 hour incubation at room temperature and three washings with 1×DELFIA Wash Buffer (PerkinElmer), the phosphotyrosine residues of the acceptor were detected with an europium-labelled anti-phosphotyrosine monoclonal antibody (DELFIA Eu-N1 labelled anti-phosphotyrosine antibody PT66, PerkinElmer) and, after a further hour incubation at room temperature and three washings with 1×DELFIA Wash Buffer, overall phosphorylation of biotinylated polyGAT was determined by addition of Enhancement Solution (PerkinElmer) and fluorimetric analysis of the plates (α-Fusion FP HT, PerkinElmer) in the “Time-Resolved Fluorescence” mode.

[2] = molecular target: T2, human Ret TKR-catalytic domain (Homo sapiens, UniProt P07949); test: DELFIA Ret Kinase Assay (cell-free); type: biochemical
T2 construct: human Ret TKR-catalytic domain; purchased ProQinase
T2 sequence (P07949 724-1016 limits assumed): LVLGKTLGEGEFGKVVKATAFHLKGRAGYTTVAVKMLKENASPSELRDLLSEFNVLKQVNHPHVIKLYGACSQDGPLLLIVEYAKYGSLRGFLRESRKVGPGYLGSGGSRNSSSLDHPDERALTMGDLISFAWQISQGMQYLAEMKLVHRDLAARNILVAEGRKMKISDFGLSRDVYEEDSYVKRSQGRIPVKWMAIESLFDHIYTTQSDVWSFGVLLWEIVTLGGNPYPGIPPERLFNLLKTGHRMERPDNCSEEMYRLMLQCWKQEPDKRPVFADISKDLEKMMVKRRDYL
Description: In order to evidence and quantify inhibitory activity on Ret tyrosine kinase, the most representative compounds of the invention were tested with a dedicated DELFIA kinase assay, using a human tyrosine-kinase receptor (Ret TKR) recombinant form (human Ret TKR-catalytic domain) available from ProQinase as the tyrosine kinase.
After 10 min. incubation at 30° C., the kinase reactions were worked up as in the DELFIA cKit Kinase Assay.

[3] = test system: NIH3T3^MEN2A(C634R) cells; test: Survival curves by Coulter Counter cell count, 72 h; type: cell-based, murine; settings: Mus musculus, NIH3T3MEN2A, 72 h treatment, read-out: Cont at 72 h IC50
Description: (§1) NIH3T3 Murine fibroblasts and the transfected line NIH3T3^MEN2A(C634R) were treated with increasing concentrations of the compounds of the invention for 72 h. Survival curves were obtained by Coulter Counter cell count. IC50s calculated from said curves are reported in Table 9: the higher sensitivity of the oncoprotein-expressing cell line is evident. The reversal of the morphologically transformed phenotype of NIH3T3^MEN2A (C634R) cells in the presence of the compounds of the invention was evaluated by contrast phase microscopy after 24 h treatment and photographically documented.

[4] = test system: NIH3T3^MEN2A(C634R) cells; test: Reversal of morphologically transformed phenotype, contrast phase microscopy, 24 h; type: cell-based, murine; settings: 24 h treatment; for minimal effective concentration: Mus musculus, NIH3T3MEN2A, read-out: Morphology a 24 h: concentration from which reversal was observed
Description: as §1

[5] = cell-free DELFIA, 25 ng cKit TKR, 150 μM ATP, 20 minutes at 30° C., read-out: IC50
[6] = cell-free DELFIA, 50 ng Ret TKR, 3 μM ATP, 10 min. at 30° C., read-out: IC50

T1 sequence (P10721 589-937 limits assumed): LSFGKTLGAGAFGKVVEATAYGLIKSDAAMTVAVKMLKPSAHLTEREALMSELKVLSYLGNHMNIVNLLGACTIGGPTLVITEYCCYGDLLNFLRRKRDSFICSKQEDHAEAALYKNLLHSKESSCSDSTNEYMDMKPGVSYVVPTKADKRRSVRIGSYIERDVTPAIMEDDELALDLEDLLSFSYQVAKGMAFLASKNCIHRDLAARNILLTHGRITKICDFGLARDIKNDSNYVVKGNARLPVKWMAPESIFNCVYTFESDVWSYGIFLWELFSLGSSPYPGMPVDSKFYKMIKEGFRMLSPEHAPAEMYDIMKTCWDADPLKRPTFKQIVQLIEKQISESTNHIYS

## COc1cc2c(cc1OC)/C(=C\c1ccc(OC(=O)N3CCN(CCOCCO)CC3)cc1)C(=O)N2 [B.6, 4-[2-(2-Hydroxyethoxy)ethyl]piperazine-1-carboxylic Acid (E)-4-(5,6-dimethoxy-2-oxo-1,2-dihydro-indol-3-ylidenemethyl)phenyl Ester]
[1]; [5]
  IC50: 7.47 µM
[2]; [6]
  IC50: 6.65 µM
[3]
  IC50: 5.6 ± 1.8 µM
[4]
  Morphology a 24 h: REVERSAL
  minimal effective concentration: ≥ 10 µM

## COc1ccc(OC(=O)Oc2ccc(/C=C3/C(=O)Nc4cc(OC)c(OC)cc43)cc2)cc1 [Example H.1, (E)-4-(5,6-dimethoxy-2-oxo-1,2-dihydro-indol-3-ylidenemethyl)phenyl, 4-methoxyphenyl Carbonate]
[1]; [5]
  IC50: 1.19 µM
[2]; [6]
  IC50: 4.43 µM
[3]
  IC50: 3.3 ± 0.03 µM
[4]
  Morphology a 24 h: REVERSAL
  minimal effective concentration: ≥ 10 µM
other
  melting point: 165 to 167 °C

## CCCCCCNC(=O)Oc1ccc(/C=C2/C(=O)Nc3cc(OC)c(OC)cc32)cc1 [A.4, n-Hexyl Carbamic Acid, (E)-4-(5,6-dimethoxy-2-oxo-1,2-dihydro-indol-3-ylidenemethyl)phenyl Ester]
[1]; [5]
  IC50: 0.135 µM
[2]; [6]
  IC50: 5.73 µM
other
  melting point: 168 to 170 °C

## COc1cc2c(cc1OC)/C(=C\c1ccc(OC(=O)c3cccnc3)cc1)C(=O)N2 [E.3, Nicotinic Acid, (E)-4-(5,6-dimethoxy-2-oxo-1,2-dihydro-indol-3-ylidenemethyl)phenyl Ester]
other
  melting point: 227 to 229 °C

## COc1cc2c(cc1OC)/C(=C\c1ccc(OCCO)cc1)C(=O)N2 [D.1, (E) 3-[4-(2-hydroxyetoxy)benzylidene]-5,6-dimethoxy-1,3-dihydro-indol-2-one]
[1]; [5]
  IC50: 3.63 µM
[2]; [6]
  IC50: 1.12 µM
[3]
  IC50: 4.3 ± 0.6 µM
[4]
  Morphology a 24 h: REVERSAL
  minimal effective concentration: ≥ 10 µM

## COc1cc2c(cc1OC)/C(=C\c1ccc(OC(=O)c3ccccc3)cc1)C(=O)N2 [Example E.1, Benzoic Acid, (E)-4-(5,6-dimethoxy-2-oxo-1,2-dihydro-indol-3-ylidenemethyl)phenyl Ester]
other
  melting point: 228 to 230 °C

## COc1cc2c(cc1OC)/C(=C\c1ccc(OC(=O)N3CCN(c4ccccc4)CC3)cc1)C(=O)N2 [B.7, 4-Phenylpiperazine-1-carboxylic Acid, (E)-4-(5,6-dimethoxy-2-oxo-1,2-dihydro-indol-3-ylidenemethyl)phenyl Ester]
[1]; [5]
  IC50: 2.78 µM
[2]; [6]
  IC50: 3.23 µM
other
  melting point: > 260 °C

## COc1cc2c(cc1OC)/C(=C\c1ccc(OC(=O)Nc3ccccc3)cc1)C(=O)N2 [Example A.1, Phenylcarbamic Acid, (E)-4-(5,6-dimethoxy-2-oxo-1,2-dihydro-indol-3-ylidenemethyl)phenyl Ester]
[1]; [5]
  IC50: 1.66 µM
[2]; [6]
  IC50: 8.39 µM
other
  melting point: 201 to 203 °C

## COc1cc2c(cc1OC)/C(=C\c1ccc(OC(=O)N3CCOCC3)cc1)C(=O)N2 [B.2, Morpholine-4-carboxylic Acid, (E)-4-(5,6-dimethoxy-2-oxo-1,2-dihydro-indol-3-ylidenemethyl)phenyl Ester]
other
  melting point: 255 to 257 °C

## COc1cc2c(cc1OC)/C(=C\c1ccc(OC(=O)c3cnccn3)cc1)C(=O)N2 [F.5, Pyrazine-2-carboxylic Acid, (E)-4-(5,6-dimethoxy-2-oxo-1,2-dihydro-indol-3-ylidenemethyl)phenyl Ester]
other
  melting point: > 250 °C

## COc1cc2c(cc1OC)/C(=C\c1ccc(OC(=O)NC(C)(C)C)cc1)C(=O)N2
other
  melting point: 238 to 240 °C

## COCCOCCOCC(=O)Oc1ccc(/C=C2/C(=O)Nc3cc(OC)c(OC)cc32)cc1 [F.3, [2-(2-Methoxy-ethoxy)-ethoxy]acetic Acid, (E)-4-(5,6-dimethoxy-2-oxo-1,2-dihydro-indol-3-ylidenemethyl)phenyl Ester]
[1]; [5]
  IC50: 5.08 µM
[2]; [6]
  IC50: 3.79 µM
other
  melting point: 117 to 119 °C

## CCCCCCCCCC(=O)Oc1ccc(/C=C2/C(=O)Nc3cc(OC)c(OC)cc32)cc1 [Example F.1, n-decanoic Acid, (E)-4-(5,6-dimethoxy-2-oxo-1,2-dihydro-indol-3-ylidenemethyl)phenyl Ester]
other
  melting point: 138 to 140 °C

## COc1cc2c(cc1OC)/C(=C\c1ccc(OC(=O)N(CCO)CCO)cc1)C(=O)N2
other
  melting point: 183 to 185 °C

## COc1ccc(NC(=O)Oc2ccc(/C=C3/C(=O)Nc4cc(OC)c(OC)cc43)cc2)cc1
other
  melting point: 189 to 191 °C

## COc1cc2c(cc1OC)/C(=C/c1ccc(OC(=O)CCCCNC(=O)OC(C)(C)C)cc1)C(=O)N2 [G.2, 5-tert-Butoxycarbonylamino-pentanoic Acid, (Z)-4-(5,6-dimethoxy-2-oxo-1,2-dihydro-indol-3-ylidenemethyl)phenyl Ester]
[1]; [5]
  IC50: 0.77 µM
[2]; [6]
  IC50: 3.45 µM

## COc1cc2c(cc1OC)/C(=C\c1ccc(OC(C)=O)cc1)C(=O)N2 [E.2, Acetic Acid, (E)-4-(5,6-dimethoxy-2-oxo-1,2-dihydro-indol-3-ylidenemethyl)phenyl Ester]
[3]
  IC50: 1.5 ± 0.05 µM
[4]
  Morphology a 24 h: REVERSAL
  minimal effective concentration: ≥ 5 µM
other
  melting point: 189 to 191 °C

## COc1cc2c(cc1OC)/C(=C/c1ccc(OC(=O)c3cccn3C)cc1)C(=O)N2 [G.3, 1-Methyl-1H-pyrrole-2-carboxylic Acid, (Z)-4-(5,6-dimethoxy-2-oxo-1,2-dihydro-indol-3-ylidenemethyl)phenyl Ester]
[1]; [5]
  IC50: 2.65 µM
[2]; [6]
  IC50: 6.38 µM

## CCCCCCCCCC(=O)Oc1ccc(/C=C2\C(=O)Nc3cc(OC)c(OC)cc32)cc1 [Example G.1, n-decanoic Acid, (Z)-4-(5,6-dimethoxy-2-oxo-1,2-dihydro-indol-3-ylidenemethyl)phenyl Ester]
other
  melting point: 95 to 97 °C

## COc1cc2c(cc1OC)/C(=C\c1ccc(OC(=O)c3cccn3C)cc1)C(=O)N2 [Example F.4, 1-Methyl-1H-pyrrole-2-carboxylic Acid, (E)-4-(5,6-dimethoxy-2-oxo-1,2-dihydro-indol-3-ylidenemethyl)phenyl Ester]
other
  melting point: 165 to 167 °C

## CCCCCNC(=O)Oc1ccc(/C=C2/C(=O)Nc3cc(OC)c(OC)cc32)cc1 [A.3, n-Pentyl Carbamic Acid, (E)-4-(5,6-dimethoxy-2-oxo-1,2-dihydro-indol-3-ylidenemethyl)phenyl Ester]
[1]; [5]
  IC50: 0.38 ± 0.16 µM
[2]; [6]
  IC50: 1.78 µM
[3]
  IC50: 2.2 ± 0.7 µM
[4]
  Morphology a 24 h: REVERSAL
  minimal effective concentration: ≥ 5 µM
other
  melting point: 173 to 175 °C

## CCOP(=O)(OCC)Oc1ccc(/C=C2/C(=O)Nc3cc(OC)c(OC)cc32)cc1 [Example C.2, (E)-4-(5,6-dimethoxy-2-oxo-1,2-dihydro-indol-3-ylidenemethyl)phenyl Diethyl Phosphate]
[1]
  IC50: 5.09 µM
[2]
  IC50: 63.5 µM
[3]
  IC50: 1.7 ± 0.1 µM
[4]
  Morphology a 24 h: REVERSAL
  minimal effective concentration: ≥ 5 µM

## COc1ccc(OC(=O)Oc2ccc(/C=C3\C(=O)Nc4cc(OC)c(OC)cc43)cc2)cc1 [Example H.2, (Z)-4-(5,6-dimethoxy-2-oxo-1,2-dihydro-indol-3-ylidenemethyl)phenyl, 4-methoxyphenyl Carbonate]
[1]; [5]
  IC50: 0.28 µM
[2]; [6]
  IC50: 4.84 µM

## COc1cc2c(cc1OC)/C(=C\c1ccc(OC(=O)CCCCNC(=O)OC(C)(C)C)cc1)C(=O)N2 [Example F.2, 5-tert-Butoxycarbonylamino-pentanoic Acid, (E)-4-(5,6-dimethoxy-2-oxo-1,2-dihydro-indol-3-ylidenemethyl)phenyl Ester]
[1]; [5]
  IC50: 1.2 µM
[2]; [6]
  IC50: 1.37 µM
other
  melting point: 101 to 103 °C
